Experimental findings from ChEMBL document CHEMBL4373734, “Overcoming imatinib resistance in chronic myelogenous leukemia cells using non-cytotoxic cell death modulators” (Eur J Med Chem, 2020) are described below.

SMILES strings stand for the structures. Calls of active or inactive are those of the source. No cut-off for these calls is given here. Where only a bound is given, the exact number is not on record here.

For data set [1], the system named is K562-IMA[r]. In words: Induction of sensitization to imatinib-induced cytotoxicity in imatinib-resistant human K562-IMA[r] cells assessed as induction of cell death at 10 uM after 72 hrs in presence of 1 uM imatinib by propidium iodide/Triton-X100 dye based FACS analysis. In kind it is functional. Background: A flow cytometer gives signals particle by particle.

For data set [2], the target named is T1, Peroxisome proliferator-activated receptor gamma (Homo sapiens) (UniProt P37231).
T1 sequence (whole entry): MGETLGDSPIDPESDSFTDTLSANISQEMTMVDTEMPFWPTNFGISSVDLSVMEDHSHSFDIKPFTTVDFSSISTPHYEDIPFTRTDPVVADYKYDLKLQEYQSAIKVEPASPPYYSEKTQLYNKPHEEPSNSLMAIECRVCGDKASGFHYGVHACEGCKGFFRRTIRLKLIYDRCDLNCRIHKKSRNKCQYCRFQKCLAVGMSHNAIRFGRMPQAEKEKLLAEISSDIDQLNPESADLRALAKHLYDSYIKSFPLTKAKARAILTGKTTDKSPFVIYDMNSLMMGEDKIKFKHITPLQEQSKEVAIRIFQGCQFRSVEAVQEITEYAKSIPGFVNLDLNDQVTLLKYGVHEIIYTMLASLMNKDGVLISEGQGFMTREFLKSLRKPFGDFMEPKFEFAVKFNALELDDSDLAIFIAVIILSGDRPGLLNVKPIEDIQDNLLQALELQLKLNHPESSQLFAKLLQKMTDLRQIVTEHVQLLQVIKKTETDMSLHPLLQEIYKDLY
In words: Transactivation of Gal4-fused human PPARgamma transfected in COS7 cells co-transfected with pGAL5-TK-pGL3 and pRennilla-CMV assessed as maximum intrinsic activation at 10 uM incubated for 39 hrs by dual luciferase reporter assay relative to pioglitazone. In kind it is cell-based.

Data set [3] concerns the target T1, Peroxisome proliferator-activated receptor gamma (Homo sapiens). In words: Transactivation of Gal4-fused human PPARgamma transfected in COS7 cells co-transfected with pGAL5-TK-pGL3 and pRennilla-CMV assessed as maximum intrinsic activation at 20 uM incubated for 39 hrs by dual luciferase reporter assay. It is filed as cell-based.
The target of data set [4] is T2, Peroxisome proliferator-activated receptor gamma (Homo sapiens, UniProt P37231).
T2 sequence (P37231 whole entry): T1 sequence (whole entry)
In words: Transactivation of Gal4-fused human PPARgamma transfected in COS7 cells co-transfected with pGAL5-TK-pGL3 and pRennilla-CMV incubated for 39 hrs by dual luciferase reporter assay. In kind it is cell-based. A general note: A reporter such as luciferase makes a cellular process visible.

Data set [5] has as its system K562-IMA[r]. In words: Induction of sensitization to imatinib-induced cytotoxicity in imatinib-resistant human K562-IMA[r] cells assessed as induction of cell death at 10 uM after 72 hrs in presence of 1 uM imatinib by propidium iodide/Triton-X100 dye based FACS analysis (reference value: 15%). It is filed as functional.
The test system of data set [6] is K562-IMA[r]. In words: Induction of sensitization to imatinib induced cytotoxicity in imatinib-resistant human K562-IMA[r] cells assessed as cell death up to 2.5 uM measured after 72 hrs in presence of 1 uM imatinib by propidium iodide/Triton-X100 dye based FACS analysis. In kind it is functional.
The test system of another data set is K562. In words: Cytotoxicity against human K562 cells assessed as cell death at 10 uM after 72 hrs by propidium iodide/Triton-X100 dye based FACS analysis. To be noted: k562, 72 h.
Data set [7] can be described thus: Solubility of compound in water at >20 uM. In kind it is physicochemical. Particulars: buffer.
The test system of the next data set is COS-7. In words: Cytotoxicity against African green monkey COS7 cells assessed as effect on cell metabolic activity at 20 uM after 72 hrs by MTT assay. In kind it is ADME, cell-based. To be noted: chlorocebus aethiops, cos-7, 72 h.
Data set [8] is described as follows: Solubility of compound in DMSO at 10 uM by microscopic analysis. It is filed as physicochemical.
The test system of data set [9] is K562-IMA[r]. In words: Cytotoxicity against imatinib-resistant human K562-IMA[r] cells assessed as induction of cell death at 10 uM after 72 hrs by propidium iodide/Triton-X100 dye based FACS analysis relative to control.
The nature of data set [10]: Cytotoxicity against human HS5 cells assessed as cell death at 10 uM after 72 hrs by propidium iodide/Triton-X100 dye based FACS analysis.
In data set [11] the test system is K562-IMA[r]. In words: Induction of sensitization to imatinib-induced cytotoxicity in imatinib-resistant human K562-IMA[r] cells assessed as induction of cell death measured after 72 hrs in presence of 1 uM imatinib by propidium iodide/Triton-X100 dye based FACS analysis. It is filed as functional.
In data set [12] the test system is K562-IMA[r]. In words: Induction of sensitization to imatinib-induced cytotoxicity in imatinib-resistant human K562-IMA[r] cells assessed as gain in cell death rate at 5 uM measured after 72 hrs in presence of 1 uM imatinib by propidium iodide/Triton-X100 dye based FACS analysis relative to imatinib-treated control. In kind it is functional.
In data set [13] the test system is K562-IMA[r]. In words: Cytotoxicity against imatinib-resistant human K562-IMA[r] cells assessed as cell death at 10 uM after 72 hrs by propidium iodide/Triton-X100 dye based FACS analysis.

One may read the EC50 as the concentration needed to bring the measured effect to its halfway point. Take `CCCc1nc2c(C)cc(-c3nc4ccccc4n3C)cc2n1Cc1ccc(-c2ccccc2C(=O)O)cc1` [TELMISARTAN]: in the data set on K562-IMA[r] [1], the result was Active. For the same molecule, the Intrinsic activity in data set [2] worked out at 59.1%; in data set [3], 78%. Further, the EC50 in [4] is 4.28 µM.

`CCCc1nc2c(C(F)(F)F)cccc2n1Cc1ccc(-c2ccccc2C(N)=O)cc1`: the Activity in the data set on K562-IMA[r] [5] is 62 - 78%; in the data set on K562 it was “Non-Toxic”; in the data set on COS-7, “Non-Toxic”; in the data set with K562-IMA[r] [9], < 20%; in [10], “Non-Toxic”; in the data set on K562-IMA[r] [11], “Dose-dependent effect”. Besides, in the data set with K562-IMA[r] [12], the Activity worked out at 7.1%. Besides, the result with K562-IMA[r] [6] was inactive. Further, the results for the solubility entry in [7] and in data set [8] were “Insoluble” and “Soluble”, respectively. In addition, the Intrinsic activity in data set [2] was determined as 19.5%. Also, the Intrinsic activity result in data set [3] is “inactive”.

With `CCCc1nc2c(Cl)cccc2n1Cc1ccc(-c2ccccc2C(N)=O)cc1`, the Activity in the data set on K562-IMA[r] [5] was 62 - 78%; in the data set with K562, “Non-Toxic”; with COS-7, “Non-Toxic”; in the data set on K562-IMA[r] [9], < 20%; in [10], “Non-Toxic”; in the data set with K562-IMA[r] [11], “Dose-dependent effect”. Moreover, the Activity in the data set on K562-IMA[r] [12] is reported as 15.3%. Besides, in the data set with K562-IMA[r] [6], the result was inactive. Further, the solubility result is listed as “Insoluble” in data set [7] and “Soluble” in [8]. Further, the Intrinsic activity in data set [2] was 21.1%. For the same molecule, the Intrinsic activity result in [3] was “inactive”.

With `CCCc1nc2c(C)cccc2n1Cc1ccc(-c2ccccc2C(N)=O)cc1`, the Activity was 62 - 78% in the data set with K562-IMA[r] [5]; “Non-Toxic” in the data set on K562; “Non-Toxic” in the data set on COS-7; < 20% in the data set with K562-IMA[r] [9]; “Non-Toxic” in [10]; “Dose-dependent effect” with K562-IMA[r] [11]. Also, in the data set with K562-IMA[r] [12], the Activity was 11.2%. For the same molecule, in the data set on K562-IMA[r] [6], the result was inactive. Moreover, the values for the solubility entry in data set [7] and in data set [8] were “Insoluble” and “Soluble”, respectively. For the same molecule, in data set [2], the Intrinsic activity came out at 19.6%. Further, in data set [3], the Intrinsic activity result was “inactive”.

Regarding `CCCc1nc2c(N)cccc2n1Cc1ccc(-c2ccccc2C(N)=O)cc1`, the result in the data set on K562-IMA[r] [1] was Active. For the same molecule, the Activity result (in the data set with K562; in the data set with COS-7; in data set [10]; with K562-IMA[r] [13]) was “Non-Toxic” in each case. The solubility result in [7] was “Insoluble”; in data set [8] it was “Soluble”. The Intrinsic activity in data set [2] is 25.1%. Besides, the Intrinsic activity entry in data set [3] was “inactive”.

For `CCCc1nc2c(F)cccc2n1Cc1ccc(-c2ccccc2C(N)=O)cc1`, the Activity was 62 - 78% in the data set with K562-IMA[r] [5]; “Non-Toxic” with K562; “Non-Toxic” in the data set with COS-7; < 20% in the data set on K562-IMA[r] [9]; “Non-Toxic” in data set [10]; “Dose-dependent effect” in the data set with K562-IMA[r] [11]. Also, the Activity in the data set with K562-IMA[r] [12] came to 8.1%. Besides, in the data set on K562-IMA[r] [6], the result was inactive. The solubility result in data set [7] was “Insoluble”; in data set [8], “Soluble”. For the same molecule, the Intrinsic activity in data set [2] was determined as 33.3%. In data set [3], the Intrinsic activity entry was “inactive”.

With `CCCc1nc2c(C)cccc2n1Cc1ccc(-c2ccccc2C(=O)O)cc1`, in the data set with K562-IMA[r] [1], the result was Active. In addition, the Activity entry (with K562; in the data set with COS-7; in [10]; with K562-IMA[r] [13]) was “Non-Toxic” each time. Besides, the Intrinsic activity in [2] worked out at 54.3%. For the same molecule, the solubility result in data set [8] was “Soluble”. In addition, in [4], the response was half-maximal at 11.1 µM (EC50).

As for `CCCc1nc2c(C(F)(F)F)cccc2n1Cc1ccc(-c2ccccc2C(=O)O)cc1`, the result with K562-IMA[r] [1] was Active. For the same molecule, the Activity result (with K562; in the data set on COS-7; in data set [10]; in the data set on K562-IMA[r] [13]) was “Non-Toxic” throughout. Further, the Intrinsic activity in data set [2] came to 29.5%. Moreover, the solubility result in data set [8] was “Soluble”. In addition, the EC50 in [4] is 12.1 µM.

Consider `CCCc1nc2c([N+](=O)[O-])cccc2n1Cc1ccc(-c2ccccc2C(N)=O)cc1`, for which, in the data set on K562-IMA[r] [1], the result was Active. Also, the Activity entry (in the data set with K562; with COS-7; in data set [10]; with K562-IMA[r] [13]) was “Non-Toxic” throughout. Besides, the values for the solubility entry in [7] and in data set [8] were “Insoluble” and “Soluble”, respectively. Also, the Intrinsic activity in data set [2] was 7.15%. For the same molecule, the Intrinsic activity entry in data set [3] was “inactive”.

Regarding `CCCc1nc2c([N+](=O)[O-])cccc2n1Cc1ccc(-c2ccccc2C(=O)O)cc1`, in the data set with K562-IMA[r] [1], the outcome was Active. Besides, the Activity entry (with K562; in the data set with COS-7; in [10]; with K562-IMA[r] [13]) was “Non-Toxic” each time. For the same molecule, the Intrinsic activity in [2] was determined as 0.42%. The solubility result in data set [8] is recorded as “Soluble”.

In the case of `CCCc1nc2c(O)cccc2n1Cc1ccc(-c2ccccc2C(=O)O)cc1`, in the data set with K562-IMA[r] [1], the result was Active. Also, the Activity result (in the data set with K562; with COS-7; in data set [10]; in the data set with K562-IMA[r] [13]) was “Non-Toxic” in each case. Further, in data set [2], the Intrinsic activity turned out to be 14.4%. Also, the solubility result in data set [8] was “Soluble”.

Turning to `CCCc1nc2c(OC)cccc2n1Cc1ccc(-c2ccccc2C(N)=O)cc1`, in the data set with K562-IMA[r] [1], the outcome was Active. In addition, the Activity entry (in the data set with K562; in the data set on COS-7; in data set [10]; in the data set with K562-IMA[r] [13]) was “Non-Toxic” throughout. Also, the figures for the solubility result in [7] and in data set [8] were “Insoluble” and “Soluble”, respectively. The Intrinsic activity in data set [2] is 13.3%. For the same molecule, the Intrinsic activity result in [3] was “inactive”.

Consider `CCCc1nc2c(OC)cccc2n1Cc1ccc(-c2ccccc2C(=O)O)cc1`, for which, in the data set on K562-IMA[r] [1], the result was Active. The Activity result (with K562; in the data set on COS-7; in data set [10]; with K562-IMA[r] [13]) was “Non-Toxic” throughout. Besides, in data set [2], the Intrinsic activity is 17.9%. Besides, the solubility result in [8] was “Soluble”.

With `CCCc1nc2c(O)cccc2n1Cc1ccc(-c2ccccc2C(N)=O)cc1`, the result with K562-IMA[r] [1] was Active. In addition, the Activity result (in the data set on K562; with COS-7; in data set [10]; with K562-IMA[r] [13]) was “Non-Toxic” in each case. Moreover, the solubility entry in data set [7] is given as “Insoluble”; in data set [8], “Soluble”. In addition, the Intrinsic activity in data set [2] turned out to be 20.5%. In addition, the Intrinsic activity entry in data set [3] was “inactive”.

In the case of `CCCc1nc2c(N)cccc2n1Cc1ccc(-c2ccccc2C(=O)O)cc1`, the outcome in the data set with K562-IMA[r] [1] was Active. For the same molecule, the Activity result (in the data set with K562; in the data set on COS-7; in data set [10]; in the data set with K562-IMA[r] [13]) was “Non-Toxic” each time. The Intrinsic activity in data set [2] was determined as 15.7%. Besides, the solubility entry in data set [8] is given as “Soluble”.
